Experimental data: paper PMC6174881 (Journal of medicinal chemistry, 2018)
Values joined by “and” are separate entries in the source; they are usually repeats but may differ in a detail not shown here. Identical values can stand only once. Blank lines part the entries; values can stand above or below the compound they belong to. Square brackets hold non-standard residues; d marks the D form. Peptide text beside a SMILES is read from it. hPhe = N[C@@H](CCc1ccccc1)C(=O)O; Nle = CCCC[C@H](N)C(=O)O; Dap = NC[C@H](N)C(=O)O

Assays:
mMC4R = mMC4R (Mus musculus, UniProt P56450); conditions: for fold increase in potency at the mMC4R compared to 1: calculated using Ki values from Schild analysis; for selectivity for the mMC4R over the mMC3R: calculated using antagonist Ki values
mMC4R, sequence (P56450 whole entry): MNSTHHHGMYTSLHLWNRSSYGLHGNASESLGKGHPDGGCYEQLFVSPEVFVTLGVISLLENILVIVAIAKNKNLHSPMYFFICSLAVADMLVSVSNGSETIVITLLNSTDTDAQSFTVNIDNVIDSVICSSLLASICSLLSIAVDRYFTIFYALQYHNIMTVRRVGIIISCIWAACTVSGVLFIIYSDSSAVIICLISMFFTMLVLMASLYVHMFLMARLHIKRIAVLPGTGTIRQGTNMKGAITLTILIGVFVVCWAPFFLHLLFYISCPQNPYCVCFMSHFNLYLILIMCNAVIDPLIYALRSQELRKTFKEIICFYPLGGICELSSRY

mMC5R = mMC5R (Mus musculus, UniProt P41149); test: AlphaScreen cAMP assay, agonist/inverse agonist activity at mMC5R; conditions: for mMC5R activity in words: up to 100 μM
mMC5R, sequence (P41149 whole entry): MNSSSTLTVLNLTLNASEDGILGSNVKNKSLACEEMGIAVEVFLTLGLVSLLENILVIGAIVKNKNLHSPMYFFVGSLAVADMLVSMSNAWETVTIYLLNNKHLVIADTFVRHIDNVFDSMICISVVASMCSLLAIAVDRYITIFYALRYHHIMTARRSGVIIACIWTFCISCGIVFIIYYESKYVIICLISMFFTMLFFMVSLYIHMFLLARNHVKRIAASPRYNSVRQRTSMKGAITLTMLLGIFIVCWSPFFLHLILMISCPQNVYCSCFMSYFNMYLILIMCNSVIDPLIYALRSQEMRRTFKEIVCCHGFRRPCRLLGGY

mMC3R = mMC3R (Mus musculus, UniProt P33033); conditions: for fold increase in potency at the mMC3R compared to 1: calculated using Ki values from Schild analysis
mMC3R, sequence (P33033 whole entry): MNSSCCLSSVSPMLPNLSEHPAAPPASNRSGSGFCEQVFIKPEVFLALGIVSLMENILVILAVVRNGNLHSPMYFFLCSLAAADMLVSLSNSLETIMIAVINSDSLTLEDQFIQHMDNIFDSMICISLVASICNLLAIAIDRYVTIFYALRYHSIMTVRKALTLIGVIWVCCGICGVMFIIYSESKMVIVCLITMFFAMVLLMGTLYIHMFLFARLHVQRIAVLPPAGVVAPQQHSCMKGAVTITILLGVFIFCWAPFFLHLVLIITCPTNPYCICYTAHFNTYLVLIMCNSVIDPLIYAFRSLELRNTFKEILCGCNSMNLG

mMC1R = mMC1R (Mus musculus, UniProt Q01727); conditions: up to 100 μM
mMC1R, sequence (Q01727 whole entry): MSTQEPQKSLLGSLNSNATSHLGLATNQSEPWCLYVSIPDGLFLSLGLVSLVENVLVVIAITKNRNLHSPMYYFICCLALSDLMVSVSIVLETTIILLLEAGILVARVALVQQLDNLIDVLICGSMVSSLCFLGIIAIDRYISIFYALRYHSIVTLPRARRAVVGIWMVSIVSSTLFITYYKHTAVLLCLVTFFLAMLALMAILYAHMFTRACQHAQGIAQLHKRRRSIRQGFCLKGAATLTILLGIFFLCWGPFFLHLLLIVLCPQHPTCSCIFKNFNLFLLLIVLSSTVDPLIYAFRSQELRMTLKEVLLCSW

[1] = Schild analysis with agonist NDP-MSH, pA2 = −log[Ki]

Structure (SMILES): CCCC[C@@H]1NC(=O)[C@H](CO)NC(=O)[C@H](CN)NC(=O)[C@H](Cc2ccccc2)NC(=O)[C@H](Cc2ccccc2)NC(=O)[C@H](CCCNC(=N)N)NC(=O)[C@@H]2CCCN2C(=O)[C@H]2CCCN2C1=O [Compound 8, c[Pro-Arg-Phe-Phe-Dap-Ser-Nle-DPro]] (cyclo(RFF[Dap]S[Nle][dP]P))
fold increase in potency at the mMC4R compared to 1 (mMC4R): ≥ 10 fold

Structure (SMILES): CCCC[C@@H]1NC(=O)[C@H](CO)NC(=O)[C@H](CC(N)=O)NC(=O)[C@H](CCc2ccccc2)NC(=O)[C@H](Cc2ccccc2)NC(=O)[C@H](CCCNC(=N)N)NC(=O)[C@@H]2CCCN2C(=O)[C@H]2CCCN2C1=O [Compound 16, c[Pro-Arg-Phe-hPhe-Asn-Ser-Nle-DPro]] (cyclo(RF[hPhe]NS[Nle][dP]P))
fold more potent than AGRP at the mMC4R (mMC4R): 3–6 fold | Antagonist mMC4R pA2 (mMC4R; [1]): 9.23 | selectivity for the mMC4R over the mMC3R (mMC4R): 600–800 fold and 800 fold | mMC5R activity in words (mMC5R): did not result in mMC5R stimulation | Antagonist mMC3R pA2 (mMC3R; [1]): 6.33

Structure (SMILES): CCCC[C@@H]1NC(=O)[C@H](CO)NC(=O)[C@H](CN)NC(=O)[C@H](CCc2ccccc2)NC(=O)[C@H](Cc2ccccc2)NC(=O)[C@H](CCCNC(=N)N)NC(=O)[C@@H]2CCCN2C(=O)[C@H]2CCCN2C1=O [Compound 20, c[Pro-Arg-Phe-hPhe-Dap-Ser-Nle-DPro]] (cyclo(RF[hPhe][Dap]S[Nle][dP]P))
fold more potent than AGRP at the mMC4R (mMC4R): 3–6 fold | fold increase in potency at the mMC4R compared to 1 (mMC4R): 25 fold | selectivity for the mMC4R over the mMC3R (mMC4R): 600–800 fold and 600 fold | mMC5R activity in words (mMC5R): did not result in mMC5R stimulation

Structure (SMILES): N=C(N)NCCC[C@@H]1NC(=O)[C@H](CCc2ccccc2)NC(=O)[C@H](Cc2ccccc2)NC(=O)[C@H](CCCNC(=N)N)NC(=O)[C@@H]2CCCN2C(=O)[C@H]2CCCN2C(=O)[C@H](Cc2ccccc2)NC(=O)[C@H](CO)NC1=O [Compound 23, c[Pro-Arg-Phe-hPhe-Arg-Ser-Phe-DPro]] (cyclo(RF[hPhe]RSF[dP]P))
fold increase in potency at the mMC3R compared to 1 (mMC3R): greater than 10 fold

Structure (SMILES): CCCC[C@@H]1NC(=O)[C@H](C)NC(=O)[C@H](CCCNC(=N)N)NC(=O)[C@H](Cc2ccccc2)NC(=O)[C@H](Cc2ccccc2)NC(=O)[C@H](CCCNC(=N)N)NC(=O)[C@@H]2CCCN2C(=O)[C@H]2CCCN2C1=O [Compound 10, c[Pro-Arg-Phe-Phe-Arg-Ala-Nle-DPro]] (cyclo(RFFRA[Nle][dP]P))
fold increase in potency at the mMC4R compared to 1 (mMC4R): ≥ 10 fold | fold increase in potency at the mMC3R compared to 1 (mMC3R): greater than 10 fold

Continued, values first:

fold increase in potency at the mMC4R compared to 1 (mMC4R): ≥ 10 fold
Structure (SMILES): CCCC[C@@H]1NC(=O)[C@H](CO)NC(=O)[C@H](CCCNC(=N)N)NC(=O)[C@H](Cc2ccccc2)NC(=O)[C@H](Cc2ccccc2)NC(=O)[C@H](CCCNC(=N)N)NC(=O)[C@@H]2CCCN2C(=O)[C@H]2CCCN2C1=O [Compound 12, c[Pro-Arg-Phe-Phe-Arg-Ser-Nle-DPro]] (cyclo(RFFRS[Nle][dP]P))

fold increase in potency at the mMC4R compared to 1 (mMC4R): ≤ 10 fold | mMC5R inverse agonist efficacy −X% @ 100 μM (mMC5R; at 100 μM relative to basal, no sigmoidal dose-response): −35% @ 100μM | mMC5R activity in words (mMC5R): inverse agonist activity was observed
Structure (SMILES): CCCC[C@@H]1NC(=O)[C@H](CO)NC(=O)[C@H](CC(N)=O)NC(=O)[C@H](Cc2ccccc2)NC(=O)[C@H](Cc2ccccc2)NC(=O)[C@H](CCCNC(=N)N)NC(=O)[C@@H]2CCCN2C(=O)[C@H]2CCCN2C1=O [Compound 4, c[Pro-Arg-Phe-Phe-Asn-Ser-Nle-DPro]] (cyclo(RFFNS[Nle][dP]P))

mMC1R agonist activity in words (mMC1R): did not possess agonist activity
Structure (SMILES): CCCC[C@@H]1NC(=O)[C@H](C)NC(=O)[C@H](CC(N)=O)NC(=O)[C@H](CCc2ccccc2)NC(=O)[C@H](Cc2ccccc2)NC(=O)[C@H](CCCNC(=N)N)NC(=O)[C@@H]2CCCN2C(=O)[C@H]2CCCN2C1=O [Compound 14, c[Pro-Arg-Phe-hPhe-Asn-Ala-Nle-DPro]]

mMC1R agonist activity in words (mMC1R): did not possess agonist activity
Structure (SMILES): CCCC[C@@H]1NC(=O)[C@H](C)NC(=O)[C@H](CN)NC(=O)[C@H](CCc2ccccc2)NC(=O)[C@H](Cc2ccccc2)NC(=O)[C@H](CCCNC(=N)N)NC(=O)[C@@H]2CCCN2C(=O)[C@H]2CCCN2C1=O [Compound 18, c[Pro-Arg-Phe-hPhe-Dap-Ala-Nle-DPro]] (cyclo(RF[hPhe][Dap]A[Nle][dP]P))
